Laboratory results reported in patent publication US10159672B2 (PARION SCIENCES, INC., priority 2011, dated 2018).

Columns and labels:
Rat Hepatocyte = assay: Rat hepatocyte metabolism; format: in vitro ADME; settings: 24-hour incubation
[1] = Clearance from the ocular surface (extraction from PRT threads, UPLC); format: in vivo, Rats, Sprague Dawley
Method: Procedure for P-1046 (Compound 15 Formula I, aka I, aka P-1046, aka 1046): […]
Extraction from PRT Threads:
All PRT threads were collected in eppendorf tubes and stored at −20 C until the time of drug concentration analysis. P-1046 was extracted from threads and analyzed as follows:
• 1. 200 μL of 70% ACN (70% ACN, 30% H2O) was added into sample tubes which have threads in them. • 2. Tubes from Step 1 were vortexed for 30 seconds and sonicated for 1 minute to fully immerse the threads. • 3. The sample solutions were incubated for 4 hours at room temperature. • 4. Samples were vortexed again for 30 seconds. • 5. 75 μL, of the each sample solution (from step 4) was removed into 96-well UPLC plate with an additional 75 μL of mobile phase A (5 mM ammonium formate, 0.1% formic acid in H2O) added into each sample well. • 6. Analytical standards (10 mM, 1 mM, 100 µM, 10 µM, 1 µM, 100 nM, Buffer) were prepared identically to the thread solutions. • 7. Drug concentrations from all samples were analyzed by UPLC. Solubility and Stability Testing for Compound 15 (Formula I, aka I, aka P-1046, aka 1046): Procedure for Solubility and Stability Evaluation: • 1. Prepare 2.8% NaCl and 25 mM citrate buffer, pH of the solution 4.2. The osmolality of the solution is approximately 940 mOsM. • 2. Add appropriate amount of buffer solution to a test compound to make approximate concentration of 10 mg/mL. • 3. Vortex the solution for 15 seconds, sonicate for 30 seconds, again vortex for 60 seconds and visually observe the solution. • 4. Calculate final concentration of the solution by a spectrophotometer. • Remove a portion of solution and dilute it to 1:10 ratio. Put this solution at 50° C. for the accelerated stability study for 10 days. • Obtain stability data by HPLC analysis • 5. Prepare 2.8% NaCl and 25 mM citrate buffer, pH of the solution 4.2. The osmolality of the solution is approximately 940 mOsM. • 6. Add appropriate amount of buffer solution to a test compound to make approximate concentration of 10 mg/mL. • 7. […]

Q: What does the source list for CN(C)C(=O)[C@H](CCCCNC(=N)N)NC(=O)[C@H](CCc1ccc(CCCCNC(=N)NC(=O)c2nc(Cl)c(N)nc2N)cc1)N(C)C [Compound I, 3,5-diamino-6-chloro-N-(N-(4-(4-((S)-3-(dimethylamino)-4-((S)-1-(dimethylamino)-6-guanidino-1-oxohexan-2-ylamino)-4-oxobutyl)phenyl)butyl)carbamimidoyl)pyrazine-2-carboxamide]?
A: Rat Hepatocyte Metabolism (Rat Hepatocyte): No evidence of significant metabolism; Clearance from the ocular surface, profile ([1]; all concentrations tested): apparent bi-phasic clearance; Concentration on ocular surface during the slow clearance phase vs IC50 ([1]; dosed concentration >1 mM, 30 to 120 minutes post-dose): well above the IC50; Time by which the majority of the drug is cleared from the ocular surface ([1]; post-dose, followed by slow clearance phase 30 to 120 minutes): ≤ 30 min
